Our source for the IC50 values is PMC6832265 (Molecules, 2019).

For this assay, the target named is T1, Tdp1 (Homo sapiens, UniProt Q9NUW8).
T1 construct: made in house; host or cells: Escherichia coli
Kind of assay: Real-time detection of Tdp1 activity (5'-FAM/3'-BHQ1 oligonucleotide biosensor). The format is biochemical. Particulars: 1.5 nM Tdp1, 50 nM oligonucleotide substrate, 26 °C. From the text: We first studied the inhibition potency of our compounds to Tdp1 by using a real-time oligonucleotide biosensor assay that we have previously developed. The assay was based on the ability of Tdp1 to remove the fluorescence quencher from the 3’-end of DNA. The substrate is a 16-mer single-stranded oligonucleotide containing both a 5’-FAM fluorophore and a 3’-BHQ1 quencher.
A fluorophore quencher-coupled DNA-biosensor for real-time measurement of Tdp1 cleavage activity was recently designed in our laboratory. The biosensor is a 16-mer single-stranded oligonucleotide containing both a 5’-FAM fluorophore donor and a quenching 3’-BHQ1 moiety.
Recombinant protein Tdp1 was expressed in EsCherichia coli (pET 16B plasmid containing Tdp1 cDNA provided by Dr. K.W. Caldecott, University of Sussex, United Kingdom) and isolated as described. The reaction mixture in a final volume 200 μL contained Tdp1 reaction buffer (50 mM Tris-HCl, 50 mM NaCl, 7 mM β-mercaptoethanol), 50 nM oligonucleotide substrate, and varied concentrations of potential inhibitor. Purified Tdp1 was added in a final concentration of 1.5 nM.
The reaction mixtures were incubated at a constant temperature of 26 °C in a POLARstar OPTIMA fluorimeter, BMG LABTECH, GmbH, to measure fluorescence intensity every minute (Ex485/Em520 nm). Tdp1 inhibition was calculated by comparing the rate of increase in fluorescence of the biosensor in the presence of the compound to that of DMSO (1.5%) control wells. The measurements were carried out in at least two independent experiments. IC50 values were determined using a six-point concentration response curve. The data were imported into the MARS Data Analysis 2.0 program (BMG LABTECH) and the slope during the linear phase (data from 0 to 7 min) was calculated.

T1 sequence (Q9NUW8 whole entry): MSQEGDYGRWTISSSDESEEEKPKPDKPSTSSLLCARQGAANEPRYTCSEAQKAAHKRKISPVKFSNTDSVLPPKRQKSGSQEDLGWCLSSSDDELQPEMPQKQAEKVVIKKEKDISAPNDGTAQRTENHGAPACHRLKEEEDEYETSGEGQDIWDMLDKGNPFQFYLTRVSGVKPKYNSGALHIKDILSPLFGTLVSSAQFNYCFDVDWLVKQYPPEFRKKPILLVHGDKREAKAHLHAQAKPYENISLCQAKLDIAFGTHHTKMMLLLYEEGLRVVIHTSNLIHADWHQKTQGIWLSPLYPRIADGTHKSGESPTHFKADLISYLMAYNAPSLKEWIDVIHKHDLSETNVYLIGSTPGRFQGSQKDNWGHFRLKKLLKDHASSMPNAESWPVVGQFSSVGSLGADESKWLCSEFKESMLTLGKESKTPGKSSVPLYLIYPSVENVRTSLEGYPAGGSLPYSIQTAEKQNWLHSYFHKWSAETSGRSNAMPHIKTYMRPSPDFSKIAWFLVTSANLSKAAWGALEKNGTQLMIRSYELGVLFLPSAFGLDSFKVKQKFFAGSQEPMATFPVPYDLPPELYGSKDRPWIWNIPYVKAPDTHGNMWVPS

Usually IC50 stands for the concentration that gives 50% inhibition. A high value points to lower potency. The compound “(2R)-4-Acetyl-5,11,13-trihydroxy-2,12-dimethyl-10-{2-[(E)-2-[(1H-2-methyl-indole-3-yl) methylidene]hydrazin-1-yl]-1,3-thiazol-4-yl}-8-oxatricyclo[7.4.0.0^2,7]trideca-1(9),4,6,10,12-pentaen-3-one [(+)-16q]” displayed an IC50 of 21 ± 6 nM. On to `CC(=O)C1=C(O)C=C2Oc3c(-c4csc(N/N=C/c5ccoc5)n4)c(O)c(C)c(O)c3[C@@]2(C)C1=O` [(+)-16l, (2R)-4-Acetyl-5,11,13-trihydroxy-2,12-dimethyl-10-{2-[(E)-2-[(furan-3-yl)methylidene] hydrazin-1-yl]-1,3-thiazol-4-yl}-8-oxatricyclo[7.4.0.0^2,7]trideca-1(9),4,6,10,12-pentaen-3-one], for which the half-maximal inhibitory concentration (IC50) was 77 ± 6 nM. As to `CC(=O)C1=C(O)C=C2Oc3c(-c4csc(N/N=C/c5ccc(-c6cccc(Cl)c6)o5)n4)c(O)c(C)c(O)c3[C@]2(C)C1=O` [(−)-16r, (2S)-4-Acetyl-10-{2-[(E)-2-{[5-(3-chlorophenyl)furan-2-yl]methylidene}hydrazin-1-yl]-1,3-thiazol-4-yl}-5,11,13-trihydroxy-2,12-dimethyl-8-oxatricyclo[7.4.0.0^2,7]trideca-1(9),4,6,10,12-pentaen-3-one], inhibition was half-maximal at 53 ± 3 nM (IC50). The same measure for `CC(=O)C1=C(O)C=C2Oc3c(-c4csc(N/N=C/c5cccnc5)n4)c(O)c(C)c(O)c3[C@@]2(C)C1=O` [(+)-16c, 3-[(1E)-(2-{4-[(1R)-12-Acetyl-3,5,11-trihydroxy-1,4-dimethyl-13-oxo-8-oxatricyclo[7.4.0.0^2,7]trideca-2(7),3,5,9,11-pentaen-6-yl]-1,3-thiazol-2-yl}hydrazin-1-ylidene)methyl]pyridin-1-ium bromide]: 353 ± 17 nM; for `COc1ccc(/C=N/Nc2nc(-c3c(O)c(C)c(O)c4c3OC3=CC(O)=C(C(C)=O)C(=O)[C@]34C)cs2)cc1CSc1cc(C)ccc1C(C)(C)C` [(−)-17g, (2S)-4-Acetyl-10-{2-[(E)-2-[(3-{[(2-tert-butyl-5-methylphenyl)sulfanyl]methyl}-4-methoxyphenyl)methylidene]hydrazin-1-yl]-1,3-thiazol-4-yl}-5,11,13-trihydroxy-2,12-dimethyl-8-oxatricyclo[7.4.0.0^2,7]trideca-1(9),4,6,10,12-pentaen-3-one]: 94 ± 20 nM; for `CC(=O)C1=C(O)C=C2Oc3c(-c4csc(N/N=C/c5ccc(C)s5)n4)c(O)c(C)c(O)c3[C@]2(C)C1=O` [(−)-16e, (2S)-4-Acetyl-5,11,13-trihydroxy-2,12-dimethyl-10-{2-[(E)-2-[(5-methylthiophen-2-yl)methylidene]hydrazin-1-yl]-1,3-thiazol-4-yl}-8-oxatricyclo[7.4.0.0^2,7]trideca-1(9),4,6,10,12-pentaen-3-one]: 54 ± 25 nM. In turn, `CC(=O)C1=C(O)C=C2Oc3c(-c4csc(N/N=C/c5cccs5)n4)c(O)c(C)c(O)c3[C@@]2(C)C1=O` [(+)-16g, (2R)-4-Acetyl-5,11,13-trihydroxy-2,12-dimethyl-10-{2-[(E)-2-[(thiophen-2-yl)methylidene] hydrazin-1-yl]-1,3-thiazol-4-yl}-8-oxatricyclo[7.4.0.0^2,7]trideca-1(9),4,6,10,12-pentaen-3-one] yielded an IC50 of 52 ± 18 nM.

The compound `CC(=O)C1=C(O)C=C2Oc3c(-c4csc(N/N=C/c5cccn5C)n4)c(O)c(C)c(O)c3[C@]2(C)C1=O` [(−)-16n, (2S)-4-Acetyl-5,11,13-trihydroxy-2,12-dimethyl-10-{2-[(E)-2-[(1-methyl-pyrrol-2-yl)methylidene]hydrazin-1-yl]-1,3-thiazol-4-yl}-8-oxatricyclo[7.4.0.0^2,7]trideca-1(9),4,6,10,12-pentaen-3-one] came in with a half-inhibitory concentration (IC50) of 29 ± 9 nM.
